The assay concerns T1, TreS (recombinant trehalose synthase).
T1 construct: pET-22b(+), E. coli BL21(DE3), Ni-NTA; His6 tag kept (C-terminal per Methods, N-terminal with 13 extra residues per Results)
In words: HPLC-RID of sugars, Lineweaver-Burk. The following applies: pH 9.0, 45 °C, 30 min, 200 mM sodium phosphate. The assay is classed as biochemical, uncultured bacterium.

As a reminder, the Km is the concentration of substrate that gives half-maximal velocity. As to `OC[C@H]1O[C@H](O[C@H]2[C@H](O)[C@@H](O)C(O)O[C@@H]2CO)[C@H](O)[C@@H](O)[C@@H]1O` (some centres unmarked) [maltose], the Km was 9 ± 1.2 mM.

In the case of `OC[C@H]1O[C@H](O[C@H]2O[C@H](CO)[C@@H](O)[C@H](O)[C@H]2O)[C@H](O)[C@@H](O)[C@@H]1O` [trehalose], the Michaelis constant (Km) is 64 ± 3.5 mM.

The record behind these values is publication PMC3797794, “Identification and Characterization of a Novel Trehalose Synthase Gene Derived from Saline-Alkali Soil Metagenomes” (PLoS ONE, 2013).
